Reference: patent publication US20220257580A1, “TREATMENT OF C3 GLOMERULOPATHY USING A C5A INHIBITOR” (CHEMOCENTRYX, INC., priority 2020, published 2022)
“Also recorded” adds a separate entry of the source.

Legend:
Type in all cases: in vivo, human
[1] = test system: patient with progressive complement 3 (C3) glomerulonephritis (recurrent C3GN in a renal transplant); experiment: Special Needs program study of compound 1 in one patient: eGFR and proteinuria; details: for eGFR decline / eGFR: eGFR 83 mL/min/1.73 m^2 14 months prior, 46 at start of treatment
Source text: Under the Special Needs program in the United Kingdom (which is similar to a compassionate use protocol in the US), a C3 glomerulonephritis patient received treatment with the orally administered complement inhibitor compound 1, following the protocol detailed below. The patient had refractory disease despite a kidney transplant and prior treatment with the broadly immunosuppressive drugs rituximab, cyclophosphamide, mycophenolate mofetil, tacrolimus, and steroids. Renal allograft biopsies were taken pre-dose, 2 and 7 months during therapy. The primary efficacy objective is to evaluate the efficacy of compound 1 based on change from baseline in eGFR (MDRD, Estimated Glomerular Filtration Rate) and proteinuria. This is a clinical study to test the safety, tolerability, and efficacy of compound 1 in a patient with recurrent […] in a renal transplant. The patient will have biopsy proven recurrent […] prior to start of dosing, and be deemed eligible based on the inclusion and exclusion criteria. Screening procedures will include recording of demographics, medical history, medication history, physical examination and vital signs, serum chemistry, hematology, urinalysis (including UPCR measurement), viral screening (if not performed within prior 12 weeks), and estimated glomerular filtration rate (eGFR) assessment based on serum creatinine. The baseline eGFR needs to be at least 25 mL/min/1.73 m^2 for study eligibility. On Day 1, the patient will start compound 1 treatment. Patients will take compound 1 30 mg orally twice daily for an initial period of 84 days. The patient will visit the study center on Days 1, 8, 15, 29, 57, and 85. The compound 1 dose will be taken in the morning optimally within one hour after breakfast and in the evening optimally within one hour after dinner. If the patient's clinical condition stabilizes or improves, and there are no adverse events preventing further treatment, the patient may be treated for another 84-day treatment cycle. The 84-day cycles may be repeated for a total of up to 4 cycles under this protocol. For the 84-day cycles after the first cycle, the patient will visit the study center every 4 weeks. There will be 4-week follow-up period after the patient stops the compound 1 treatment. Efficacy assessments include: • 1. First morning urinary PCR or ACR; • 2. eGFR by Modification of Diet in Renal Disease (MDRD) formula based on serum creatinine; • 3. Plasma and urine pharmacodynamic markers, e.g., MCP-1, C3a, C5a, properdin, and sC5b-9; • 4. Glomerular inflammation (e.g., crescents, inflammatory cell infiltrate, endocapillary proliferation) and C3 deposition in a follow-up renal biopsy sample;

[2] = test system: patient with progressive complement 3 (C3) glomerulonephritis (recurrent C3GN in a renal transplant); experiment: Special Needs program study of compound 1 in one patient: renal allograft biopsy histology; details: for Endocapillary hypercellularity/total: pre-treatment 3/11; for CD68-positive cells/glomerulus: pre-treatment 11; for Immunoflourescence microscopy, IgM: pre-treatment trace
Source text: Under the Special Needs program in the United Kingdom (which is similar to a compassionate use protocol in the US), a C3 glomerulonephritis patient received treatment with the orally administered complement inhibitor compound 1, following the protocol detailed below. The patient had refractory disease despite a kidney transplant and prior treatment with the broadly immunosuppressive drugs rituximab, cyclophosphamide, mycophenolate mofetil, tacrolimus, and steroids. Renal allograft biopsies were taken pre-dose, 2 and 7 months during therapy. At the Day 1 and post-Day 1 study visits, blood and urine samples will be collected for safety, efficacy, and pharmacokinetic measurements. Physical examinations and vital signs assessments will be performed throughout the study. Concomitant medication and adverse event assessments will be made at every study visit. If at all possible, a renal biopsy will be performed after an appropriate follow-up period to assess the changes in kidney histology. Efficacy assessments include: • 1. First morning urinary PCR or ACR; • 2. eGFR by Modification of Diet in Renal Disease (MDRD) formula based on serum creatinine; • 3. Plasma and urine pharmacodynamic markers, e.g., MCP-1, C3a, C5a, properdin, and sC5b-9; • 4. Glomerular inflammation (e.g., crescents, inflammatory cell infiltrate, endocapillary proliferation) and C3 deposition in a follow-up renal biopsy sample; Renal biopsies will be analyzed by periodic acid-Schiff (PAS) staining, immunofluorescence staining for C3, C5b-9, and potentially other markers. Electron microscopy may also be performed.

[3] = test system: patients with C3 glomerulopathy; experiment: Phase 2 placebo-controlled study (ACCOLADE): C3G Histologic Index from kidney biopsies
Protocol: The primary objective is to evaluate the efficacy of compound 1 compared to placebo based on histologic changes in C3G pathology from kidney biopsies taken before and during treatment. Patients will then be randomized, 1:1, to receive 30 mg compound 1 twice daily or matching placebo for 26 weeks in a double-blind, placebo-controlled manner. The 26-week double-blind period will be followed by a 26-week period during which all patients will receive compound 1 treatment. Efficacy assessments include: • 1. Renal histology to determine the C3G Histologic Index (CHI) for disease activity and chronicity; • 2. eGFR calculated by the Modification of Diet in Renal Disease (MDRD) equation from serum creatinine; • 3. First morning urinary PCR; • 4. First morning urinary MCP-1:creatinine ratio; • 5. EQ-5D-5L and SF-36 v2. All renal biopsies will also be analyzed based on hematoxylin-eosin (H&E) staining, periodic acid-Schiff (PAS) staining, trichrome, and Jones methenamine silver staining. These renal biopsies will be evaluated by a central reader, blinded to treatment assignment from either slides or high-resolution electronic images. The central reader will determine the degree of disease activity and chronicity. The primary efficacy endpoint is the percent change from baseline to week 26 in the C3G Histologic Index (CHI) for disease activity. The compound 1 and placebo groups will be compared by ANCOVA with treatment group and randomization strata (C3GN or DDD, and renal transplant or not) as factors, and baseline as covariate. Point estimates and corresponding 95% confidence intervals will be estimated for the difference between the compound 1 and placebo control group. Other efficacy endpoints include: • 1. The percent change from baseline in the CHI for disease chronicity over the placebo-controlled 26-week treatment period; • 2. The change and percent change from baseline in eGFR over the placebo-controlled 26-week treatment period; • 3. The percent change from baseline in urinary PCR over the placebo-controlled 26-week treatment period; • 4. The percent change from baseline in urinary MCP-1:creatinine ratio over the placebo-controlled 26-week treatment period; • 5. Change from baseline in EQ-5D-5L and SF-36 v2 (domains and component scores) over the placebo-controlled 26-week treatment period. The primary endpoint of the study was change from baseline to week 26 in the C3G Histologic Index for Disease Activity, comparing the changes in kidney histology from biopsy sections taken from patients characterized by elevated levels of C5b-9 complement markers in the blood at time of study entry (baseline).

[4] = test system: patients with C3 glomerulopathy; experiment: Phase 2 placebo-controlled study (ACCOLADE): eGFR, urinary PCR, urinary MCP-1:creatinine ratio
Source text: The secondary objectives of this study include assessment of: • 1. The safety of compound 1 compared to placebo based on the incidence of adverse events, changes in clinical laboratory measurements, and vital signs; • 2. Changes in laboratory parameters of renal disease including estimated glomerular filtration rate (eGFR), proteinuria, and urinary excretion of monocyte chemoattractant protein-1 (MCP-1) with compound 1 compared to placebo; • 3. Health-related quality-of-life changes based on Short Form-36 version 2 (SF-36 v2) and EuroQOL-5D-5L (EQ-5D-5L) with compound 1 compared to placebo; • 4. Evaluation of the pharmacokinetic profile of compound 1 in patients with C3 glomerulopathy. Patients will then be randomized, 1:1, to receive 30 mg compound 1 twice daily or matching placebo for 26 weeks in a double-blind, placebo-controlled manner. The 26-week double-blind period will be followed by a 26-week period during which all patients will receive compound 1 treatment. Efficacy assessments include: • 1. Renal histology to determine the C3G Histologic Index (CHI) for disease activity and chronicity; • 2. eGFR calculated by the Modification of Diet in Renal Disease (MDRD) equation from serum creatinine; • 3. First morning urinary PCR; • 4. First morning urinary MCP-1:creatinine ratio; • 5. EQ-5D-5L and SF-36 v2. Other efficacy endpoints include: • 1. The percent change from baseline in the CHI for disease chronicity over the placebo-controlled 26-week treatment period; • 2. The change and percent change from baseline in eGFR over the placebo-controlled 26-week treatment period; • 3. The percent change from baseline in urinary PCR over the placebo-controlled 26-week treatment period; • 4. The percent change from baseline in urinary MCP-1:creatinine ratio over the placebo-controlled 26-week treatment period; • 5. Change from baseline in EQ-5D-5L and SF-36 v2 (domains and component scores) over the placebo-controlled 26-week treatment period. Continuous variables, including eGFR, urinary PCR, urinary MCP-1:creatinine ratio, EQ-5D-5L, and SF-36 v2 will be analyzed using a mixed effects model for repeated measures ([…]) with treatment group, visit, treatment-by-visit interaction, and randomization strata (C3GN or DDD, and renal transplant or not) as factors, and baseline as covariate. Patients will be considered as repeated measure units over visits. Point estimates and corresponding 95% confidence intervals will be estimated for the difference between the compound 1 group and the control group across 26 weeks using simple contrast from the model. Similar to the primary endpoint, the second 26 weeks will be compared to the first 26 weeks for the placebo group.

[5] = test system: patients with C3 glomerulopathy; experiment: Phase 2 placebo-controlled study (ACCOLADE): safety and tolerability; details: patients with C3G
Source text: The secondary objectives of this study include assessment of: • 1. The safety of compound 1 compared to placebo based on the incidence of adverse events, changes in clinical laboratory measurements, and vital signs; • 2. Changes in laboratory parameters of renal disease including estimated glomerular filtration rate (eGFR), proteinuria, and urinary excretion of monocyte chemoattractant protein-1 (MCP-1) with compound 1 compared to placebo; • 3. Health-related quality-of-life changes based on Short Form-36 version 2 (SF-36 v2) and EuroQOL-5D-5L (EQ-5D-5L) with compound 1 compared to placebo; • 4. Evaluation of the pharmacokinetic profile of compound 1 in patients with C3 glomerulopathy.
Safety assessments include adverse events, physical examination abnormalities, vital signs, and clinical laboratory tests (including blood chemistry, hematology, and urinalysis).
Safety endpoints include: • 1. Patient incidence of treatment-emergent serious adverse events, adverse events, and withdrawals due to adverse events; • 2. Change from baseline and shifts from baseline in all safety laboratory parameters; • 3. Change from baseline in vital signs.

## Cc1ccc(NC(=O)[C@H]2CCCN(C(=O)c3c(C)cccc3F)[C@H]2c2ccc(NC3CCCC3)cc2)cc1C(F)(F)F [Compound 1, avacopan]
[1]; after 1 month of treatment
  eGFR decline: attenuated
[1]; single C3GN patient, compound 1 30 mg orally twice daily
  Proteinuria drop: approximately 80%
[1]; single C3GN patient
  eGFR decline / eGFR: stabilized eGFR
[1]; single C3GN patient, listed as compound 1
  eGFR decline / eGFR: attenuated or stopped
[2]; 2 months of therapy
  Endocapillary hypercellularity/total: 0/36
  CD68-positive cells/glomerulus: 2-3
  Immunoflourescence microscopy, IgM: neg
[2]; 7 months of therapy
  Endocapillary hypercellularity/total: 0/14
  CD68-positive cells/glomerulus: 1-2
  Immunoflourescence microscopy, IgM: neg
[2]; on-treatment biopsy compared to pre-treatment
  glomerular inflammation: reduced glomerular inflammation
[2]; on-treatment kidney biopsy compared to pre-treatment biopsy
  glomerular endocapillary proliferation / hypercellularity: clearance of glomerular endocapillary proliferation; also recorded: resolution of glomerular endocapillary hypercellularity; also recorded: reduction in endocapillary hypercellularity
[2]; on-treatment kidney biopsy compared to pre-treatment biopsy, CD68 staining
  glomerular inflammatory macrophages: marked decrease; also recorded: reduction in glomerular macrophages
[3]; baseline to Week 26
  C3G Index for Disease Chronicity, higher change in placebo group than avacopan: 26 percentage point
[3]; baseline to Week 26, increase = worsening, placebo 58%
  C3G Histologic Index for Disease Chronicity, change from baseline: 32%
[3]; baseline to week 26, all C3G subjects (elevated and normal C5b-9), placebo worsened by 26%
  C3G Histologic Index for Disease Activity (C3G Activity Score), improvement on average: 6%
[3]; baseline to week 26, elevated C5b-9 patients, avacopan vs placebo, not statistically significant
  C3G Activity Score, average difference between the two treatment arms: approximately 40%
[3]; baseline to week 26, patients with elevated C5b-9 at baseline, placebo worsened by 38%
  C3G Histologic Index for Disease Activity (C3G Activity Score), improvement on average: 2%
[3]; baseline to week 26, placebo 1.6, P<0.05
  C3G Histologic Index for Disease Chronicity, mean change from baseline: 0.8
[4]; 26-week treatment period, placebo 1%
  Urinary MCP-1:Creatinine Ratio Percent Change from Baseline: −12%
[4]; 26-week treatment period, placebo −14%
  Urinary Protein:Creatinine Ratio (Proteinuria) Percent Change from Baseline: −26%
[4]; 26 weeks, subjects with eGFR <60 mL/min/1.73 m^2 at baseline, placebo 6% worsening, P=0.0199
  eGFR improvement from baseline: 13%
[4]; 26 weeks, subjects with eGFR <60 mL/min/1.73 m^2 at baseline, placebo decrease of 1.4
  eGFR mean increase: about 5 mL/min/1.73 m^2
[4]; after 26 weeks, subjects with eGFR <60 mL/min/1.73 m^2 at baseline
  eGFR average increase relative to placebo: ~20%
[4]; baseline to week 26, overall, placebo worsened by 6%, P=0.0221
  eGFR improvement on average from baseline: 5%
[4]; end of 26 weeks, placebo 14%
  UPCR (proteinuria) reduction from baseline: 26%
[4]; throughout the 26-week treatment period
  urinary MCP-1 creatinine ratio versus the placebo group: consistently exhibiting lower levels
[4]; week 16, placebo 1% decrease, P<0.05
  UPCR (proteinuria) mean decrease from baseline: 35%
[5]
  safety and tolerability: safe and well-tolerated
